In publication PMC4885879, “Genomic Rearrangements and Functional Diversification of lecA and lecB Lectin-Coding Regions Impacting the Efficacy of Glycomimetics Directed against Pseudomonas aeruginosa” (Frontiers in Microbiology, 2016):

Assays:
LecBPA7 [1] = target: T1, LecBPA7 (Pseudomonas paraeruginosa, UniProt A6V267); assay: ITC; type: binding; design: gene PSPA7_1769; recombinant LecBPA7
LecBPA7 [2] = target: T1, LecBPA7; assay: X-ray crystal structure ([…] Å) and ITC; type: binding; design: gene PSPA7_1769; recombinant LecBPA7, 114 amino acids, tetramer

T1 sequence (A6V267 entry or part of it): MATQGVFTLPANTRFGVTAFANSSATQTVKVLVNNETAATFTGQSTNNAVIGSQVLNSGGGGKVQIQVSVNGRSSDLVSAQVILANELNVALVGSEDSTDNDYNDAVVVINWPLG

SMILES | Kd (LecBPA7 [1]) [µM] | Kd (LecBPA7 [2]) [µM]
CO[C@@H]1O[C@@H](C)[C@@H](O)[C@@H](O)[C@@H]1O [FucOMe, methyl α-L-fucoside] | 2.2 | 
CC(=O)N[C@H]1[C@H](O[C@H]2[C@@H](O)[C@@H](CO)OC(O)[C@@H]2O)O[C@H](CO)[C@@H](O[C@@H]2O[C@@H](C)[C@@H](O)[C@@H](O)[C@@H]2O)[C@@H]1O[C@@H]1O[C@H](CO)[C@H](O)[C@H](O)[C@H]1O (stereo partly drawn) [Lewis^a tetrasaccharide] |  | 2.01
CO[C@H]1O[C@H](CO)[C@@H](O)[C@H](O)[C@@H]1O [ManOMe, methyl α-D-mannoside] | 73 | 
